Measured values reported in ChEMBL document CHEMBL1146588, “Ancistrotanzanine A, the first 5,3'-coupled naphthylisoquinoline alkaloid, and two further, 5,8'-linked related compounds from the newly described species Ancistrocladus tanzaniensis” (J Nat Prod, 2003).
Values after ≈ are worked out from the molar mass of the structure shown.

Columns and labels:
[1] = test system: Trypanosoma brucei rhodesiense; test: Antitrypanosomal activity against Trypanosoma brucei rhodesiense; type: functional, organism-based
Trypanosoma cruzi = test: Antitrypanosomal activity against Trypanosoma cruzi; type: functional, organism-based
[2] = Cytotoxicity against rat L6 cells; type: cell-based; conditions: read-out: MIC
Plasmodium falciparum [3] = test: Antimalarial activity against Plasmodium falciparum 3D7; type: functional, organism-based
Leishmania donovani = test: Antileishmanial activity against Leishmania donovani; type: functional, organism-based
Plasmodium falciparum [4] = test: Antimalarial activity against Plasmodium falciparum K1; type: functional, organism-based

Compound | IC50 [1] [µg/mL] | IC50 (Trypanosoma cruzi) [µg/mL] | MCC [2] [µg/mL] | IC50 (Plasmodium falciparum [3]) [µg/mL] | IC50 (Leishmania donovani) [µg/mL] | IC50 (Plasmodium falciparum [4]) [µg/mL]
COc1cc(OC)c(-c2ccc(OC)c3c(OC)cc(C)cc23)c2c1C(C)=N[C@@H](C)C2 [ANCISTROEALAINE A] | 0.7 (≈ 1.67 µM) | 1.5 (≈ 3.58 µM) | 8.1 | 5 (≈ 11.9 µM) | 1.6 (≈ 3.81 µM) | 0.3 (≈ 0.715 µM)
COc1cc(OC)c(-c2c(C)cc3cccc(OC)c3c2O)c2c1C(C)=N[C@@H](C)C2 [ANCISTROTANZANINE A] | 0.7 (≈ 1.73 µM) | 1.7 (≈ 4.19 µM) | 6.4 |  | 1.8 (≈ 4.44 µM) | 0.3 (≈ 0.74 µM)
COc1cc(OC)c2c(c1-c1ccc(OC)c3c(OC)cc(C)cc13)C[C@H](C)N[C@H]2C [ANCISTROTECTORILINE A] | 2.1 (≈ 4.98 µM) | 17.8 (≈ 42.2 µM) | 6.5 | 14 (≈ 33.2 µM) | > 10 | 0.5 (≈ 1.19 µM)
O=C(Cn1ccnc1[N+](=O)[O-])NCc1ccccc1 [BENZNIDAZOLE] |  | 0.42 (≈ 1.61 µM) |  |  |  | 
Nc1nc(N)nc(Nc2ccc([As]3SCC(CO)S3)cc2)n1 (stereo not given) [MELARSOPROL] | 0.001 |  |  |  |  | 
CCCCCCCCCCCCCCCCOP(=O)([O-])OCC[N+](C)(C)C [MILTEFOSINE] |  |  |  |  | 0.305 (≈ 0.748 µM) | 
